Experiments:
[1] = single time-point (2 h) oral pharmacokinetic screening in mice; format: in vivo, mouse; details: single time point PK, oral 10 mg/kg DPTIP equivalent
Method: All PK studies in mice were conducted according to protocols approved by the Animal Care and Use Committee at Johns Hopkins University. Male CD-1 mice between 25 and 30 g were obtained from Harlan and maintained on a 12 h light-dark cycle with ad libitum access to food and water. […] All of the formulations were freshly prepared prior to the dosing. The mice were sacrificed at specified time points (either 2 h or 0.25, 0.5, 1, 2, 4, 6, and 8 h) post drug administration. For the collection of plasma and brain tissue, animals were euthanized with CO2, and blood samples were collected in heparinized microtubes by cardiac puncture. Brains were dissected and immediately flash frozen (−80° C.) Blood samples were spun at 2000 g for 15 min, and plasma was removed and stored at −80° C. until LC-MS/MS analysis. Prior to extraction, frozen samples were thawed on ice.
Brain tissues were diluted 1:5 w/v with acetonitrile containing losartan (0.5 μm) and homogenized, followed by vortex-mixing and centrifugation at 10,000 g for 10 min at 4° C. […] Plasma concentrations (nmol/ml) as well as brain tissue concentrations (nmol/g) were determined and plots of mean plasma concentration versus time were constructed. Non-compartmental analysis modules in Phoenix WinNonlin version 7.0 (Certara USA, Inc., Princeton, NJ) were used to quantify exposures (AUC0-t).

[2] = in vitro stability in CES1−/− mouse brain homogenates; format: in vitro ADME; details: CES1−/− mouse brain homogenate, 10 μM, 37° C.
Method: (§1) All synthesized prodrugs were next screened for in vitro stability in carboxylesterase 1 knockout (CES1^−/−) mouse plasma, as well as CES1^−/− mouse brain and liver homogenates (Table 2-1). We have previously reported that CES1^−/− mouse model recapitulates human prodrug metabolism.
(§2) For the tissue homogenates, washed tissues were diluted 10-fold in 0.1 M potassium phosphate buffer and homogenized using a probe sonicator. To evaluate the stability of the intact prodrug over time, each of the crude homogenates and plasma were aliquoted to 1 mL and then spiked with a final assay concentration of 10 μM of each prodrug followed by incubation in an orbital shaker at 37° C. for 1 h (in triplicate). Sample from each incubation at predetermined time points (0 min, and 1 h) was quenched with three volumes of acetonitrile containing the internal standard (IS; losartan: 0.5 μm). Samples were vortex-mixed for 30 secs and centrifuged at 10,000×g for 10 min at 4° C. Disappearance of intact prodrugs from these samples were performed on a Dionex ultra-high-performance LC system coupled with Q Exactive Focus orbitrap mass spectrometer (Thermo Fisher Scientific Inc., Waltham MA). […] The mobile phase consisted of 0.1% formic acid in water and 0.1% formic acid in acetonitrile. Pumps were operated at a flow rate of 0.4 mL/min for 9 min using gradient elution. The mass spectrometer controlled by Xcalibur software 4.0.27.13 (Thermo Scientific) was operated with a heated electrospray ionization (HESI) ion source in positive ionization mode. Quantification of the prodrugs were performed in the full-scan mode (from m/z 50 to 1600) by comparing t=0 samples with t=60 min samples.

[3] = in vitro stability in CES1−/− mouse liver homogenates; format: in vitro ADME; details: CES1−/− mouse liver homogenate, 10 μM, 37° C.
Method: as §1, §2

With `CCC1CC(N2CCCCC2)CC(CC)N1C(=O)Oc1c(OC)cc(-c2nc(-c3ccccc3)c(-c3cccs3)[nH]2)cc1OC` (stereo not drawn) [Compound P18, 2,6-Dimethoxy-4-(5-phenyl-4-(thiophen-2-yl)-1H-imidazol-2-yl)phenyl 2′,6′-diethyl-[1,4′-bipiperidine]-1′-carboxylate] the “improvement of brain and plasma levels of DPTIP and/or its brain penetration index compared with DPTIP” value [1] was “highest improvement”, the “Stability in mouse (% remaining at 1h) Mean + Std Error, Brain” value [2] was 100 ± 1% and the “Stability in mouse (% remaining at 1h) Mean + Std Error, Liver” value [3] was 100 ± 3%.
